These results are taken from patent publication US20120264231A1, “ASSAY FOR ORAI CALCIUM CHANNEL REGULATORS” (IMMUNE DISEASE INSTITUTE, INC., priority 2009, published 2012).

The target in one experiment is ORAI1 (E106Q) (Homo sapiens, UniProt Q96D31, E106Q). As to the kind of experiment: Tb3+ luminescence resonance energy transfer, lanthanide binding to ORAI1. More on the design: Human ORAI1 (65-301) with an N-terminal FLAG tag was subcloned into the pPIC3.5K vector; made in house; host or cells: Pichia pastoris (membranes). As to the method:
Tb3+ luminescence resonance energy transfer (Tb3+-LRET) experiments were performed on a FluoroLog®-3 spectrofluorometer (HORIBA Scientific) with a 1-cm lengthpath cuvette at ambient temperature. Emission spectra were collected from 500 to 600 nm with the excitation set at 282 nm, or at 295 nm to minimize the contribution from tyrosine. The slit widths for excitation and emission were set at 4 nm and 8 nm, respectively. A glass filter with cutoff of ˜320 nm was used to circumvent light scattering. […] Spectra from membranes lacking ORAI1, with the same total membrane protein content, served as negative control.
In each case, a scan of luminescence emission from membrane suspension alone was obtained, then Tb3+ was added into the cuvette and a second scan was performed (FIG. 12). Protein content of the two samples was the same. The presence of equivalent amounts of membrane microsomes was also evidenced by identical light scattering in the two cases prior to addition of Tb3+. Characteristic Tb3+ emission peaks at 547 nm and 589 nm were prominent in the ORAI sample, attributable to energy transfer from one or more of the native tryptophan residues of the protein.

Another experiment concerns STIM1−/− T cells. As to the kind of experiment: Single-cell [Ca2+]i measurement in STIM1−/− T cells expressing STIM1 fragments. It counts as cell-based, murine. The text has this: To determine the competence of STIM 1 fragments to activate ORAI1 in mammalian cells, Myc-tagged STIM 1^CT and its truncated variants were introduced by retroviral expression into STIM1−/− T cells, and their ability to elevate resting Ca^2+ permeability was examined in cells loaded with Fura-2. As in human Jurkat T cells (Huang, G. N., et al., (2006); supra), expression of the soluble cytoplasmic portion of STIM 1 activated Ca^2+ influx into STIM1−/− murine T cells (FIG. 11). Elevated Ca^2+ permeability was evident in a marked increase in cytoplasmic [Ca^2+] on changing to medium containing 2 mM Ca^2+ after brief exposure to nominally Ca^2+-free medium. […] Retroviral vector alone conferred no constitutive influx above the level in control cells, as previously shown (Oh-hora, M., et al., (2008), supra).
Retroviral expression plasmids encoding mouse STIM 1 and its cytoplasmic fragments (residues 233-685, 233-600, 233-498, or 233-463) were constructed by inserting the corresponding coding sequences between the XhoI and EcoRI sites of the vector pMSCV-CITE-eGFP-PGK-Puro (Clontech), which allows for coexpression of the inserted gene, GFP, and a puromycin resistance gene. GFP expression was used to estimate transducing efficiency.
Primary CD4^+ cells were purified from spleen and lymph nodes of Stim1^f1/f1 CD4-Cre^+ mice using Dynal magnetic beads (Invitrogen) following the manufacturer's instructions. Purified T cells were stimulated with anti-CD3 and anti-CD28, transduced with retroviruses obtained from transfected Phoenix packaging cells, and further expanded in IL-2-containing medium as described (Oh-hora, M., et al., Nat Immunol 9, 432-443 (2008); Ansel, K. M., et al., Nat Immunol 5, 1251-1259 (2004)). The transduction efficiency (>80%) was estimated by evaluating GFP expression using flow cytometry.
Retrovirus-transduced CD4^+ cells isolated from Stim1^f1/f1 CD4-Cre^+ mice were incubated overnight in IL-2 free RPMI medium and loaded with 2 μM Fura-2-acetoxylmethyl ester (Invitrogen) for 45 min at ambient temperature in the dark. T cells were further attached to coverslips precoated with 0.01% poly-L-lysine, mounted to a RC-20 closed-bath flow chamber (Warner Instrument), and bathed in Ringer's solution (155 mM NaCl, 4.5 mM KCl, 2 mM CaCl2, 1 mM MgCl2, 10 mM D-glucose and 5 mM HEPES, pH 7.4). For nominally Ca^2+-free Ringer's solution CaCl2 was replaced with MgCl2. After 5 minutes of equilibration in Ringer's solution, [Ca^2+]i measurement commenced with ˜3 min perfusion of T cells with Ca^2+-free Ringer's solution at ambient temperature, followed by perfusion of Ringer's solution containing 2 mM CaCl2. The cycle was repeated once with final addition of Ringer's solution supplemented with 2 μM LaCl3 to block Ca^2+ flux. Images were acquired using a Zeiss Axiovert S200 epifluorescence microscope and OpenLab imaging analysis software (Improvision). The fluorescence data (F340 nm/F380 nm) were collected every 4 s and analyzed as described (Oh-hora, M., et al., (2008), supra; Feske, S., et al., Nature 441, 179-185 (2006)). In each experiment, for each experimental condition, 50-100 GFP-positive CD4+ T cells were analyzed.

A further experiment addresses human ORAI3 (Homo sapiens, UniProt Q9BRQ5). The note with it: for ^45Ca^2+ uptake (cpm): 75 μM 2-APB. As to the method: (§1) Human ORAI3 was expressed in P. pastoris as described below. Then ^45Ca^2+ uptake was measured in a suspension of P. pastoris cells expressing ORAI3, after addition of 2-aminoethoxydiphenyl borate (2-APB), a compound known to activate ORAI3 expressed in mammalian cells.
Individual colonies were picked, and ORAI3 protein expression was induced by growth for eight hours in MMY medium (containing 0.5% methanol), whose formulation is given below. Cells were collected by centrifugation, and disrupted by vortexing in an Eppendorf tube with 0.5 mm glass beads. Beads, unbroken cells, and debris were removed by centrifugation at 5000 rpm in a benchtop centrifuge. The supernatant from that centrifugation was centrifuged at 100,000×g to pellet cell membranes. Cell membranes were resuspended, protein concentrations determined by Lowry or Bradford assay, and an equal amount of protein from each sample subjected to SDS-polyacrylamide gel electrophoresis and western blotting. The relative levels of Myc-ORAI3 expressed by individual colonies were compared by western blotting with antibody to the Myc tag. Colonies expressing relatively high levels of ORAI3 protein were used for the ^45Ca^2+ uptake assay.
(§2) • Streaked out Pichia glycerol stock on RDB-plate • Grew 2-5 days at 30° C. (until colonies are large enough to easily remove) Seeded 5 mL MGY medium with 1 colony • Grew 2 days in 50 mL Falcon tube (cap partially unscrewed but taped on to allow aeration), 250 rpm, 30° C. • Seeded 50 mL MGY with the 5 mL culture (use a yeast-specific baffled flask; if scaled up, the volume of the culture was 1/10th the volume of the flask) • Grew o/n, 30° C., 250 rpm • At OD ˜2-3, spun down, checked OD and resuspended in MMY at an approximate OD of 6 (i.e., 6×5E7 cells/mL) • Grew 4 h at 28.5° C., 250 rpm, 28.5° C., with the top of the flask covered in gauze (not foil or a lid—a lot of aeration needed for induction. The temperature was under 30° C.) • Measured OD • Washed 3×25 mL in Solution A • Resuspended in Solution A for a final OD of 2 (1×10^8 cells/mL)
• (Prepared everything else: 1 μCi/μL ^45CaCl2, 1 mL Solution S aliquots in tubes that can hold at least 2 mL, tips, etc.) • Spun sample (either 1 mL or the multiple-mL timepoint aliquot) down at 2000×g and resuspended in an equal volume of Solution C • (where applicable, added 2-APB or other things such as Solution S or lanthanum here. 75 μM 2-APB with Orai3.) • Added 1 μCi ^45CaCl2/Ml • Incubated as appropriate • When timepoint was taken, 1 mL sample (gently pipetted up and down, since Pichia settle) and added to 1 mL Solution S • Collected all samples • (This was repeated for each sample.) Presoaked 2.5 cm Whatman GF/F filter in place on the filter apparatus with 1 mL Solution S • Added the 2 mL sample/Solution S mix to the column • Turned on the vacuum and wash 3×15 mL with Solution W • Let filter dry under vacuum & removed to scintillation vial • Placed filter flat on the bottom of the vial, yeast-side up • Carefully added scintillation fluid • Counted in scintillation counter (^45Ca settings, if possible: window is 0-750, quench curve calibrations)

The subject of experiment [1] is P pastoris cells that were not engineered to express ORAI3. As to the method: as §1
as §2, with “(1×10^8 cells/mL) […]” for “(1×10^8 cells/mL)”

The target of experiment [2] is endogenous CRAC channels (ORAI1) of STIM1-/- murine T cells (mouse) (UniProt Q8BWG9). As to the kind of experiment: cell-based or functional assay.

Read-outs that look alike come from different tables or passages of the source.

ORAI1 (E106Q), sequence (Q96D31 65-301 E106Q): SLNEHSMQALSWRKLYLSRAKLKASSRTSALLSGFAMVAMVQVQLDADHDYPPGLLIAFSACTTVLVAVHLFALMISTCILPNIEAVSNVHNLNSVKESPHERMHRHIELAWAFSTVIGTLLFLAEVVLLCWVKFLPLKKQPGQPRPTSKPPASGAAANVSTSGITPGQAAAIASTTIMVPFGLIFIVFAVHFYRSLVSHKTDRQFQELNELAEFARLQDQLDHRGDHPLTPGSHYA
endogenous CRAC channels (ORAI1) of STIM1-/- murine T cells (mouse), sequence (Q8BWG9 whole entry): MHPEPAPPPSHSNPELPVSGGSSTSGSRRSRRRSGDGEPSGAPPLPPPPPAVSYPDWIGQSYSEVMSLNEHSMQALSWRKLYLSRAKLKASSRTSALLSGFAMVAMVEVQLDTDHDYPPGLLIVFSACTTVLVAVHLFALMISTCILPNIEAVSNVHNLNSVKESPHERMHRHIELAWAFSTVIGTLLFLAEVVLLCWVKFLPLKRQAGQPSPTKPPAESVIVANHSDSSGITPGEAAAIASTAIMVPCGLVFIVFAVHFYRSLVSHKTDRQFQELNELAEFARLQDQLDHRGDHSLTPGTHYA

In the case of `[Tb+3]` [Tb3+], the “Tb3+ emission peaks at 547 nm and 589 nm” value on ORAI1 (E106Q) (Pichia membranes containing ORAI1 (E106Q), Tb3+ 10-50 μM) is “prominent”. At ORAI1 (E106Q) (solubilized ORAI1), the “Tb3+-LRET signal” value is on record as “specific Tb3+-LRET signal”.
Regarding `[Cl][La]([Cl])[Cl]` [La^3+, LaCl3, reference compound], in the experiment with STIM1−/− T cells (2 μM LaCl3, continuing presence of external Ca^2+), the “cytoplasmic [Ca^2+] upon exposure to La^3+” value is “rapid decline”.
Consider `NCCOB(c1ccccc1)c1ccccc1` [2-APB, 2-aminoethoxydiphenyl borate], for which the “rate and extent of ^45Ca^2+ uptake” value on human ORAI3 (75 μM 2-APB versus control suspensions without 2-APB) was “increased”. Further, the “^45Ca^2+ uptake (cpm)” value is given as 2729.9 cpm on human ORAI3 (0.5 min); 3137.3 cpm on human ORAI3 (1 min); 4662.1 cpm on human ORAI3 (2 min); 6019.2 cpm at human ORAI3 (4 min); 1913.5 cpm at human ORAI3 (~0.25 min). Also, the “effect on ^45Ca^2+ uptake” value in experiment [1] was “did not have this effect”.
“Myc-tagged STIM1^CT (mouse STIM1 233-685) expressed by retrovirus in STIM1-/- T cells (from UniProt P70302 233-685)” yielded a steepest rise of cytoplasmic [Ca^2+] (Fura-2, single cells) in experiment [2] of 15 nM/s.
For the compound “STIM1 (233-600): truncated mouse STIM1 cytoplasmic fragment, residues 233-600”, in the experiment on STIM1−/− T cells (compared with STIM1^CT), the “maximum levels of cytoplasmic Ca^2+” value is “somewhat less than with STIM1^CT” and the “rate of rise of cytoplasmic Ca^2+” value is listed as “nearly comparable to the rate with STIM 1^CT”. Moreover, the “constitutive Ca^2+ influx” value with STIM1−/− T cells (retroviral expression, Fura-2) is on record as “activated a prominent constitutive Ca^2+ influx”.
